Experimental data reported in article PMC7018657, “Molecular Determinants of Substrate Selectivity of a Pneumococcal Rgg-Regulated Peptidase-Containing ABC Transporter” (mBio, 2020).
Where no end group is shown, it is not given here.

Key:
[1] = tested on: Sp9-BS68 rtgS1 promoter (PrtgS1-luc; RtgR-dependent); assay: RtgS dose-response assay, PrtgS1-luc reporter, Sp9-BS68 ΔrtgS1; type: cell-based, Streptococcus pneumoniae Sp9-BS68; details: for induction of rtgS1 promoter: Sp9-BS68 PrtgS1-luc, CDM+ and THY; for Maximal response / EC50: Sp9-BS68 ΔrtgS1, mean ± SE from Hill fit, 3 independent experiments, max PrtgS1 activity within 60 min; for EC50: synthetic peptide added at OD620 0.02, luminescence, 37°C
Protocol: (§1) FIG 2 The Rgg/SHP-like RtgR/RtgS system regulates rtg. (A) rtgR and rtgS1 are required for rtg activation in Sp9-BS68. Sp9-BS68 PrtgS1-luc reporters were grown in CDM+ or THY and monitored for rtg activation (dark, left y axis) and cell density (light, right y axis). Plots show medians (lines) and 25% to 75% quantiles (shading) from 12 wells pooled from 3 independent experiments. (B) Translated rtgS gene products from Sp9-BS68 and D39. The type-defining residues are highlighted in red. (C) rtgS1 but not rtgS2 is required for rtg activation in D39. D39 PrtgS1-luc reporters were grown in CDM+ and monitored for rtg activation (dark, left y axis) and cell density (light, right y axis). Plots show medians (lines) and 25% to 75% quantiles (shading) from 30 wells pooled from 3 independent experiments. C-terminal fragments of RtgSA induce rtg in an RtgR-dependent manner. Sp9-BS68 PrtgS1-luc reporters were grown in CDM+ and THY (D) or CDM+ only (E) to an OD620 of 0.02 and treated with synthetic RtgSA fragments. Response was defined as the maximum observed PrtgS1 activity within 60 min of treatment. Data in panel D were fitted to the four-parameter Hill model (curves). Plotted data points represent means ± SEs from 3 independent experiments. […] A D39 ΔrtgS1 ΔrtgS2 PrtgS1-luc reporter was grown in CDM+ to an OD620 of 0.02 and treated with synthetic RtgS fragments. Response was defined as the maximum observed PrtgS1 activity within 60 min of treatment. Data were fitted to the four-parameter Hill model (curves). Plotted data points represent means ± SEs from 3 independent experiments. […] A D39 ΔrtgS1 ΔrtgS2 PrtgS1-luc reporter was grown in CDM+ to an OD620 of 0.02 and treated simultaneously with 2 nM RtgSA-C10 and various concentrations of RtgSB-C10. Response was defined as the maximum observed PrtgS1 activity within 120 min of treatment. Plotted data points represent means ± SEs from 3 independent experiments. **, P < 0.01; ***, P < 0.001 versus 0 nM RtgSB-C10 by ANOVA with Dunnett’s correction for multiple comparisons.
(§2) All strains were derived from Sp9-BS68 ([36]), D39, or the R6 strain P654 (referred to as PSD100 in reference) (see Table S1 and methods in Text S1 in the supplemental material for details). […] Pneumococcus was grown in either filter-sterilized THY (Todd Hewitt broth plus 0.5% yeast extract) or CDM+ (see methods in Text S1) ([38]) at 37°C. All media contained 5 μg/ml catalase. All CDM+ was supplemented with 0.5% (vol/vol) THY. Except where noted otherwise, pneumococcal cultures used for experiments were inoculated to an OD620 of 0.0015 from starter cultures grown in THY (pH 7.4) to an OD620 of 0.275 and frozen at −80°C in 13% glycerol. Starter cultures were pelleted at 6,000 × g for 5 min at room temperature and resuspended in the appropriate growth medium for the experiment before being used for inoculation. Antibiotics were used at the following concentrations: chloramphenicol, 2 μg/ml; gentamicin, 200 μg/ml; kanamycin, 500 μg/ml; spectinomycin, 200 μg/ml; streptomycin, 100 μg/ml.
Cells expressing PrtgS1-luc reporters were grown in THY or CDM+ containing 330 μM firefly luciferin. At an OD620 of 0.02, cultures were aliquoted into a white, clear-bottom 96-well plate (655098; Greiner Bio-One), 100 μl per well. Each well of the plate was prefilled with 100 μl sterile medium containing 0.5% (vol/vol) dimethyl sulfoxide (DMSO), 330 μM firefly luciferin, and appropriate concentrations of synthetic RtgS peptide (Genscript). The plate was then incubated in a Synergy HTX plate reader set to read absorbance at 620 nm and luminescence every 5 min. For D39 strains only, the plate was shaken before readings were taken. PrtgS1 activity was calculated, and the response was defined as the maximum observed PrtgS1 activity within 60 min (Sp9-BS68) or 120 min (D39) of treatment. When applicable, curves were fit to a Hill model using the nls() function in R 3.5.1.

[2] = target: T1, D39 PrtgS1-luc (rtg locus) (Streptococcus pneumoniae, UniProt A0ACD7PPC8); assay: Competitive dose-response assay of RtgSB-C10 against RtgSA-C10, D39 ΔrtgS1 ΔrtgS2 PrtgS1-luc; type: cell-based; details: CDM+
T1 sequence (A0ACD7PPC8 1-287): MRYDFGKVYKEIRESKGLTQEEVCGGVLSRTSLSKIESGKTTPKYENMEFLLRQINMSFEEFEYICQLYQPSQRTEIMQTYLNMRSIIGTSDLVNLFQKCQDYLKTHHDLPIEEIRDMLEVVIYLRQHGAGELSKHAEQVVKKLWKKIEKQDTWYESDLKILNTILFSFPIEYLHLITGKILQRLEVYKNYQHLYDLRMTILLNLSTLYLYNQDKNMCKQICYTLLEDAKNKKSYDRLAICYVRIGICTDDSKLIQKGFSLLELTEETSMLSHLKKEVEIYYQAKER
Protocol: FIG 2 The Rgg/SHP-like RtgR/RtgS system regulates rtg. (A) rtgR and rtgS1 are required for rtg activation in Sp9-BS68. Sp9-BS68 PrtgS1-luc reporters were grown in CDM+ or THY and monitored for rtg activation (dark, left y axis) and cell density (light, right y axis). Plots show medians (lines) and 25% to 75% quantiles (shading) from 12 wells pooled from 3 independent experiments. (B) Translated rtgS gene products from Sp9-BS68 and D39. The type-defining residues are highlighted in red. (C) rtgS1 but not rtgS2 is required for rtg activation in D39. D39 PrtgS1-luc reporters were grown in CDM+ and monitored for rtg activation (dark, left y axis) and cell density (light, right y axis). Plots show medians (lines) and 25% to 75% quantiles (shading) from 30 wells pooled from 3 independent experiments. C-terminal fragments of RtgSA induce rtg in an RtgR-dependent manner. […]
(§3) Cells expressing PrtgS1-luc reporters were grown in THY or CDM+ containing 330 μM firefly luciferin. […] The plate was then incubated in a Synergy HTX plate reader set to read absorbance at 620 nm and luminescence every 5 min. For D39 strains only, the plate was shaken before readings were taken. PrtgS1 activity was calculated, and the response was defined as the maximum observed PrtgS1 activity within 60 min (Sp9-BS68) or 120 min (D39) of treatment. […]

[3] = target: T1, D39 PrtgS1-luc (rtg locus); assay: RtgS dose-response assay, PrtgS1-luc reporter, D39 ΔrtgS1 ΔrtgS2; type: cell-based; details: CDM+; for Maximal response: mean ± SE from Hill fit, 3 independent experiments, max PrtgS1 activity within 60 min / 120 min (methods)
Protocol: as §1, §2, §3

[4] = tested on: Sp9-BS68 PrtgS1-luc in ΔpptAB and ΔamiCD mutants; assay: Response of ΔpptAB and ΔamiCD PrtgS1-luc reporters to exogenous RtgS; type: cell-based, Streptococcus pneumoniae Sp9-BS68; details: CDM+, RtgSA-C10 at OD620 0.02, max within 60 min, 3 independent experiments
Protocol: Supplementary file : FIG S1 Ami and PptAB are required for RtgR/S signaling. (A) Both Ami and PptAB are required for natural rtg autoinduction. Sp9-BS68 PrtgS1-luc reporters were grown in CDM+ and monitored for rtg activation (dark, left y axis) and cell density (light, right y axis). Plots show medians (lines) and 25% to 75% quantiles (shading) from 30 wells per strain pooled from 3 independent experiments. […] Sp9-BS68 PrtgS1-luc reporters were grown in CDM+ to an OD620 of 0.02 and treated with RtgSA-C10. Response was defined as the maximum observed PrtgS1 activity within 60 min of treatment. Plotted data points represent means ± SEs from 3 independent experiments. Download FIG S1, PDF file, 0.6 MB.
as §3, with “luciferin. At an OD620 of 0.02, cultures were aliquoted into a white, clear-bottom 96-well plate (655098; Greiner Bio-One), 100 μl per well.” for “luciferin.”

IFPWGWPI [RtgSA-C8]
induction of rtgS1 promoter [1]: induced expression from the Sp9-BS68 rtgS1 promoter in both CDM+ and THY | Maximal response ([1]; CDM+): 212.2 ± 9.4 10^3 RLU·min^−1·OD620^−1 | EC50 ([1]; CDM+): 2.53 ± 0.25 nM | Maximal response ([1]; THY): 229.7 ± 8.6 10^3 RLU·min^−1·OD620^−1 | EC50 ([1]; THY): 184 ± 15 nM

AIIFPWGWSI [RtgSB-C10]
antagonism of RtgSA-C10 ([2]; high concentrations with 2 nM RtgSA-C10, 3 independent experiments): antagonize RtgSA-C10 | concentration antagonizing RtgSA-C10 ([2]; simultaneous with 2 nM RtgSA-C10, max PrtgS1 activity within 120 min, 3 independent experiments): ≥ 256 nM | rtg induction / type of agonism [3]: partial agonist | Maximal response [3]: 21.2 ± 1.5 10^3 RLU·min^−1·OD620^−1 | EC50 value larger than that of RtgSA-C10 (ratio) ([3]; versus RtgSA-C10): 55 fold

SLAIIFPWGWPI [RtgSA-C12]
induction of rtgS1 promoter [1]: induced expression from the Sp9-BS68 rtgS1 promoter in both CDM+ and THY | Maximal response ([1]; CDM+): 213.9 ± 8.0 10^3 RLU·min^−1·OD620^−1 | EC50 ([1]; CDM+): 3.51 ± 0.28 nM | Maximal response ([1]; THY): 210.1 ± 13.1 10^3 RLU·min^−1·OD620^−1 | EC50 ([1]; THY): 315 ± 42 nM

AIIFPWGWPI [RtgSA-C10]
rescue of rtg activation by exogenous RtgS [4]: rescues rtg activation defect in the ΔpptAB mutant but not the ΔamiCD mutant | rtg induction / type of agonism [3]: induces rtg similarly to Sp9-BS68 | Maximal response [3]: 75.1 ± 8.1 10^3 RLU·min^−1·OD620^−1 | induction of rtgS1 promoter [1]: induced expression from the Sp9-BS68 rtgS1 promoter in both CDM+ and THY | Maximal response ([1]; CDM+): 205.7 ± 9.1 10^3 RLU·min^−1·OD620^−1 | EC50 ([1]; CDM+): 1.63 ± 0.19 nM | Maximal response ([1]; THY): 232.4 ± 14.3 10^3 RLU·min^−1·OD620^−1 | EC50 ([1]; THY): 47.4 ± 6.9 nM
